# Where two headings read alike, the source gives them in different places. Starred links: 1 amine or outer side, 2 acyl side, 3 side chain; linkers in the order of their positions; H or OH if unused. Positions of bridges follow the written chain, without caps; N, C: chain ends. Non-standard residues stand in square brackets, D forms with d. Residues, ends and D or L forms follow the SMILES beside them. *: point of attachment. X84 = O=C(Oc1cccc(-c2ccc(C[C@H](N[*:1])C(=O)[*:2])cc2)c1)c1csc(-c2ccncc2)n1; X46 = O=C(Cc1cccc(C(=O)O)c1)Nc1ccc(-c2ccc(C[C@H](N[*:1])C(=O)[*:2])cc2)cc1; X5 = Cn1nc(C(=O)Nc2ccc(-c3ccc(C[C@H](N[*:1])C(=O)[*:2])cc3)cc2)c2ccccc21; X37 = O=C(Nc1ccc(-c2ccc(C[C@H](N[*:1])C(=O)[*:2])cc2)cc1)c1ccc2ccccc2c1; X73 = O=C(O)CCCC(=O)Nc1ccc(-c2ccc(C[C@H](N[*:1])C(=O)[*:2])cc2)cc1; X64 = O=C(O)CCC(=O)Nc1ccc(-c2ccc(C[C@H](N[*:1])C(=O)[*:2])cc2)cc1; Bip(4'-NH) = O=C([C@H](Cc1ccc(-c2ccc(N[*:3])cc2)cc1)N[*:1])[*:2]; Bip(4'-CONHMe) = CNC(=O)c1ccc(-c2ccc(C[C@H](N)C(=O)O)cc2)cc1; Indazole3carbonyl(1-CH2COOH) = O=C(O)Cn1nc(C(=O)*)c2ccccc21; Bip(4'-COOH) = N[C@@H](Cc1ccc(-c2ccc(C(=O)O)cc2)cc1)C(=O)O; X49 = O=C([C@H](Cc1ccc(-c2cccc(N[*:3])c2)cc1)N[*:1])[*:2]; Ala(morpholin-4-yl) = N[C@@H](CN1CCOCC1)C(=O)O; Phe(3-CONH2) = NC(=O)c1cccc(C[C@H](N)C(=O)O)c1; Bip = N[C@@H](Cc1ccc(-c2ccccc2)cc1)C(=O)O; X24 = O=C(O)COc1cc(-c2ccccc2)ccc1C(=O)*; X31 = Cn1c(C(=O)*)cc2cccc(Cl)c21; 2Pal = N[C@@H](Cc1ccccn1)C(=O)O; Tic = O=C(O)[C@@H]1Cc2ccccc2CN1; X32 = O=C(c1sc2cccc(Cl)c2c1Cl)*; Cha = N[C@@H](CC1CCCCC1)C(=O)O; Tle = CC(C)(C)[C@H](N)C(=O)O; X50 = O=C(O)COc1ccccc1C(=O)*; Sar = CNCC(=O)O
# Target: TNFα (Homo sapiens, UniProt P01375)
# Sequence (P01375 77-233 limits assumed): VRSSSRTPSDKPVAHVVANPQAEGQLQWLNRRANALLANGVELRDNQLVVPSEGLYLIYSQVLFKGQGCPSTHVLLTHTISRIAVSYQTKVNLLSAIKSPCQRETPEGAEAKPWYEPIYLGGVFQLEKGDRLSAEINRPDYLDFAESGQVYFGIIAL
# Assay: TNF-Induced HEK-Blue Assay
# Format: cell-based
# [1] = HEK-Blue-CD40L cells, NF-kB-driven secreted alkaline phosphatase reporter, TNFα 0.5 ng/ml, 18 h, read-out: TNF induced HEK-Blue assay IC50 value
Compound,IC50 [1],IC50
CC[C@H](C)[C@@H]1NC(=O)[C@@H](CCCNC(=N)N)NC(=O)[C@H](CC(=O)O)NC(=O)[C@H](Cc2cnc[nH]2)NC(=O)CN(C)C(=O)[C@H](Cc2ccc(-c3ccc(NC(=O)c4ccc5ccccc5c4)cc3)cc2)NC(=O)[C@H](Cc2ccc(-c3ccccc3)cc2)NC(=O)[C@H](CC2CCCCC2)NC(=O)CSC[C@@H](C(=O)NCC(N)=O)NC(=O)[C@H](CC(C)C)NC(=O)[C@H](Cc2cnc[nH]2)NC(=O)[C@H](C(C)C)NC(=O)[C@@H]2CCCN2C1=O [Example 322] ({CH2CO}-[Cha][Bip][X37][Sar]HD[dR]IPVHLCG-NH2; thioether N-13),50 to 200 nM,
CC[C@H](C)[C@@H]1NC(=O)[C@@H](CCCNC(=N)N)NC(=O)[C@H](CC(=O)O)NC(=O)[C@H](Cc2cnc[nH]2)NC(=O)CN(C)C(=O)[C@H](Cc2ccc(-c3ccc(NC(=O)CCC(=O)O)cc3)cc2)NC(=O)[C@H](Cc2ccc(-c3ccccc3)cc2)NC(=O)[C@H](CC2CCCCC2)NC(=O)CSC[C@@H](C(=O)NCC(N)=O)NC(=O)[C@H](CC(C)C)NC(=O)[C@H](Cc2cnc[nH]2)NC(=O)[C@H](C(C)C)NC(=O)[C@@H]2CCCN2C1=O [Example 323] ({CH2CO}-[Cha][Bip][X64][Sar]HD[dR]IPVHLCG-NH2; thioether N-13),50 to 200 nM,
CC[C@H](C)[C@@H]1NC(=O)[C@@H](CCCNC(=N)N)NC(=O)[C@H](CC(=O)O)NC(=O)[C@H](Cc2cnc[nH]2)NC(=O)CN(C)C(=O)[C@H](Cc2ccc(-c3ccc(NC(=O)CCCC(=O)O)cc3)cc2)NC(=O)[C@H](Cc2ccc(-c3ccccc3)cc2)NC(=O)[C@H](CC2CCCCC2)NC(=O)CSC[C@@H](C(=O)NCC(N)=O)NC(=O)[C@H](CC(C)C)NC(=O)[C@H](Cc2cnc[nH]2)NC(=O)[C@H](C(C)C)NC(=O)[C@@H]2CCCN2C1=O [Example 324] ({CH2CO}-[Cha][Bip][X73][Sar]HD[dR]IPVHLCG-NH2; thioether N-13),50 to 200 nM,
CC[C@H](C)[C@@H]1NC(=O)[C@@H](CCCNC(=N)N)NC(=O)[C@H](CC(=O)O)NC(=O)[C@H](Cc2cnc[nH]2)NC(=O)CN(C)C(=O)[C@H](Cc2ccc(-c3ccc(NC(=O)c4sc5cccc(Cl)c5c4Cl)cc3)cc2)NC(=O)[C@H](Cc2ccc(-c3ccccc3)cc2)NC(=O)[C@H](CC2CCCCC2)NC(=O)CSC[C@@H](C(=O)NCC(N)=O)NC(=O)[C@H](CC(C)C)NC(=O)[C@H](Cc2cnc[nH]2)NC(=O)[C@H](C(C)C)NC(=O)[C@@H]2CCCN2C1=O [Example 325] ({CH2CO}-[Cha][Bip][Bip(4'-NH)](X32)[Sar]HD[dR]IPVHLCG-NH2; thioether N-13),200 to 2000 nM,
CC[C@H](C)[C@@H]1NC(=O)[C@@H](CCCNC(=N)N)NC(=O)[C@H](CC(=O)O)NC(=O)[C@H](Cc2cnc[nH]2)NC(=O)CN(C)C(=O)[C@H](Cc2ccc(-c3ccc(NC(=O)c4cc5cccc(Cl)c5n4C)cc3)cc2)NC(=O)[C@H](Cc2ccc(-c3ccccc3)cc2)NC(=O)[C@H](CC2CCCCC2)NC(=O)CSC[C@@H](C(=O)NCC(N)=O)NC(=O)[C@H](CC(C)C)NC(=O)[C@H](Cc2cnc[nH]2)NC(=O)[C@H](C(C)C)NC(=O)[C@@H]2CCCN2C1=O [Example 326] ({CH2CO}-[Cha][Bip][Bip(4'-NH)](X31)[Sar]HD[dR]IPVHLCG-NH2; thioether N-13),50 to 200 nM,
CC(C)C[C@@H]1NC(=O)[C@H](CCCNC(=N)N)NC(=O)[C@H](C(C)C)NC(=O)[C@@H]2CCCN2C(=O)[C@H](C(C)C)NC(=O)[C@@H](CCCNC(=N)N)NC(=O)[C@H](CC(=O)O)NC(=O)[C@@H]2CCCN2C(=O)CN(C)C(=O)[C@H](Cc2ccc(-c3cccc(NC(=O)c4ccccc4OCC(=O)O)c3)cc2)NC(=O)[C@H](Cc2ccc(-c3ccccc3)cc2)NC(=O)[C@H](CN2CCOCC2)NC(=O)CSC[C@@H](C(=O)NCC(N)=O)NC1=O [Example 327] ({CH2CO}-[Ala(morpholin-4-yl)][Bip][X49](X50)[Sar]PD[dR]VPVRLCG-NH2; thioether N-13),50 to 200 nM,
CC[C@H](C)[C@@H]1NC(=O)[C@@H](CCCNC(=N)N)NC(=O)[C@H](CC(=O)O)NC(=O)[C@H](Cc2cnc[nH]2)NC(=O)CN(C)C(=O)[C@H](Cc2ccc(-c3ccc(NC(=O)Cc4cccc(C(=O)O)c4)cc3)cc2)NC(=O)[C@H](Cc2ccc(-c3ccccc3)cc2)NC(=O)[C@H](CC2CCCCC2)NC(=O)CSC[C@@H](C(=O)NCC(N)=O)NC(=O)[C@H](CC(C)C)NC(=O)[C@H](Cc2cnc[nH]2)NC(=O)[C@H](C(C)C)NC(=O)[C@@H]2CCCN2C1=O [Example 328] ({CH2CO}-[Cha][Bip][X46][Sar]HD[dR]IPVHLCG-NH2; thioether N-13),50 to 200 nM,
CC[C@H](C)[C@@H]1NC(=O)[C@@H](CCCNC(=N)N)NC(=O)[C@H](CC(=O)O)NC(=O)[C@H](Cc2cnc[nH]2)NC(=O)CN(C)C(=O)[C@H](Cc2ccc(-c3ccc(NC(=O)c4ccccc4OCC(=O)O)cc3)cc2)NC(=O)[C@H](Cc2ccc(-c3ccccc3)cc2)NC(=O)[C@H](CC2CCCCC2)NC(=O)CSC[C@@H](C(=O)NCC(N)=O)NC(=O)[C@H](CC(C)C)NC(=O)[C@H](Cc2cnc[nH]2)NC(=O)[C@H](C(C)C)NC(=O)[C@@H]2CCCN2C1=O [Example 329] ({CH2CO}-[Cha][Bip][Bip(4'-NH)](X50)[Sar]HD[dR]IPVHLCG-NH2; thioether N-13),< 50 nM,
CC[C@H](C)[C@@H]1NC(=O)[C@@H](CCCNC(=N)N)NC(=O)[C@H](CC(=O)O)NC(=O)[C@H](Cc2cnc[nH]2)NC(=O)CN(C)C(=O)[C@H](Cc2ccc(-c3ccc(NC(=O)c4ccc(-c5ccccc5)cc4OCC(=O)O)cc3)cc2)NC(=O)[C@H](Cc2ccc(-c3ccccc3)cc2)NC(=O)[C@H](CC2CCCCC2)NC(=O)CSC[C@@H](C(=O)NCC(N)=O)NC(=O)[C@H](CC(C)C)NC(=O)[C@H](Cc2cnc[nH]2)NC(=O)[C@H](C(C)C)NC(=O)[C@@H]2CCCN2C1=O [Example 330] ({CH2CO}-[Cha][Bip][Bip(4'-NH)](X24)[Sar]HD[dR]IPVHLCG-NH2; thioether N-13),50 to 200 nM,
CC[C@H](C)[C@@H]1NC(=O)[C@@H](CCCNC(=N)N)NC(=O)[C@H](CC(=O)O)NC(=O)[C@H](Cc2cnc[nH]2)NC(=O)CN(C)C(=O)[C@H](Cc2ccc(-c3ccc(C(=O)NC)cc3)cc2)NC(=O)[C@H](Cc2ccc(-c3ccc(C(=O)O)cc3)cc2)NC(=O)[C@H](CC2CCCCC2)NC(=O)CSC[C@@H](C(=O)NCC(N)=O)NC(=O)[C@H](CC(C)C)NC(=O)[C@H](Cc2cnc[nH]2)NC(=O)[C@H](C(C)C)NC(=O)[C@@H]2CCCN2C1=O [Example 331] ({CH2CO}-[Cha][Bip(4'-COOH)][Bip(4'-CONHMe)][Sar]HD[dR]IPVHLCG-NH2; thioether N-13),< 50 nM,
CC(C)C[C@@H]1NC(=O)[C@H](CCCNC(=N)N)NC(=O)[C@H](C(C)C)NC(=O)[C@@H]2CCCN2C(=O)[C@H](C(C)C)NC(=O)[C@@H](CCCNC(=N)N)NC(=O)[C@H](CC(=O)O)NC(=O)[C@@H]2CCCN2C(=O)CN(C)C(=O)[C@H](Cc2ccc(-c3cccc(OC(=O)c4csc(-c5ccncc5)n4)c3)cc2)NC(=O)[C@H](Cc2ccc(-c3ccccc3)cc2)NC(=O)[C@H](CN2CCOCC2)NC(=O)CSC[C@@H](C(=O)NCC(N)=O)NC1=O [Example 332] ({CH2CO}-[Ala(morpholin-4-yl)][Bip][X84][Sar]PD[dR]VPVRLCG-NH2; thioether N-13),200 to 2000 nM,
CC(C)C[C@@H]1NC(=O)[C@H](CCCNC(=N)N)NC(=O)[C@H](C(C)C)NC(=O)[C@@H]2CCCN2C(=O)[C@H](C(C)C)NC(=O)[C@@H](CCCNC(=N)N)NC(=O)[C@H](CC(=O)O)NC(=O)[C@@H]2CCCN2C(=O)CN(C)C(=O)[C@H](Cc2ccc(-c3ccc(NC(=O)c4nn(CC(=O)O)c5ccccc45)cc3)cc2)NC(=O)[C@H](Cc2ccc(-c3ccccc3)cc2)NC(=O)[C@H](CN2CCOCC2)NC(=O)CSC[C@@H](C(=O)NCC(N)=O)NC1=O [Example 333] ({CH2CO}-[Ala(morpholin-4-yl)][Bip][Bip(4'-NH)](Indazole3carbonyl(1-CH2COOH))[Sar]PD[dR]VPVRLCG-NH2; thioether N-13),,< 50 nM
CC[C@H](C)[C@@H]1NC(=O)[C@@H]2CCCN2C(=O)[C@H]([C@@H](C)CC)NC(=O)[C@@H](CCCNC(=N)N)NC(=O)[C@H](CC(=O)O)NC(=O)[C@H](Cc2ccccc2)NC(=O)CN(C)C(=O)[C@H](Cc2ccc(-c3ccc(NC(=O)c4nn(C)c5ccccc45)cc3)cc2)NC(=O)[C@H](Cc2ccc(-c3ccc(C(=O)O)cc3)cc2)NC(=O)[C@H](C(C)(C)C)NC(=O)CSC[C@@H](C(=O)NCC(N)=O)NC(=O)[C@H](CC(C)C)NC(=O)[C@H](Cc2cnc[nH]2)NC1=O [Example 334] ({CH2CO}-[Tle][Bip(4'-COOH)][X5][Sar]FD[dR]IPIHLCG-NH2; thioether N-13),< 50 nM,
CC[C@H](C)[C@@H]1NC(=O)[C@@H]2CCCN2C(=O)[C@H]([C@@H](C)CC)NC(=O)[C@@H](CCCNC(=N)N)NC(=O)[C@H](CC(=O)O)NC(=O)[C@H](Cc2ccccn2)NC(=O)CN(C)C(=O)[C@H](Cc2ccc(-c3ccc(NC(=O)c4nn(C)c5ccccc45)cc3)cc2)NC(=O)[C@H](Cc2ccc(-c3ccccc3)cc2)NC(=O)[C@H](C(C)(C)C)NC(=O)CSC[C@@H](C(=O)NCC(N)=O)NC(=O)[C@H](CC(C)C)NC(=O)[C@H](Cc2cccc(C(N)=O)c2)NC1=O [Example 335] ({CH2CO}-[Tle][Bip][X5][Sar][2Pal]D[dR]IPI[Phe(3-CONH2)]LCG-NH2; thioether N-13),50 to 200 nM,
CC[C@H](C)[C@@H]1NC(=O)[C@@H](CCCNC(=N)N)NC(=O)[C@H](CC(=O)O)NC(=O)[C@H](Cc2cnc[nH]2)NC(=O)CN(C)C(=O)[C@H](Cc2ccc(-c3ccc(NC(=O)c4nn(C)c5ccccc45)cc3)cc2)NC(=O)[C@H](Cc2ccc(-c3ccc(C(=O)O)cc3)cc2)NC(=O)[C@H](CC2CCCCC2)NC(=O)CSC[C@@H](C(=O)NCC(N)=O)NC(=O)[C@H](CC(C)C)NC(=O)[C@H](Cc2cnc[nH]2)NC(=O)[C@H](C(C)C)NC(=O)[C@@H]2Cc3ccccc3CN2C1=O [Example 336] ({CH2CO}-[Cha][Bip(4'-COOH)][X5][Sar]HD[dR]I[Tic]VHLCG-NH2; thioether N-13),< 50 nM,

# — US20250145665A1, “MACROCYCLIC PEPTIDES USEFUL AS MODULATORS OF TNF ALPHA” (Bristol-Myers Squibb Company, priority 2023, published 2025)
